From patent publication US20080009418A1, “Selective Inhibitors” (Alchemia LTD., priority 2004, published 2008)

Columns and labels:
Conditions in all cases: compound at 10 μM
Human opioid (ORL1) = target: T1, Human opioid (ORL1) (Homo sapiens, UniProt P41146); assay: Radioligand binding, human opioid ORL1 membranes, FlashPlate, [125I]-Nociceptin
T1 construct: purchased Perkin Elmer Biosignal
How it was run: (§1)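 Cloned human receptor membranes were coated onto FlashPlate wells and incubated with radioligand and compound (added from a 0.5 mM DMSO daughter plate) for 1 hour at room temperature in the dark. Scintillation counting gave percent inhibition, with DMSO defining total and reference ligand defining non-specific binding.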

Human μ-opioid (MOP) = target: T2, Human μ-opioid (MOP) (Homo sapiens, UniProt P35372); assay: Radioligand binding, human μ-opioid (MOP) membranes, FlashPlate, [3H]-Naloxone
T2 construct: purchased Perkin Elmer Biosignal
T2 sequence (P35372 whole entry): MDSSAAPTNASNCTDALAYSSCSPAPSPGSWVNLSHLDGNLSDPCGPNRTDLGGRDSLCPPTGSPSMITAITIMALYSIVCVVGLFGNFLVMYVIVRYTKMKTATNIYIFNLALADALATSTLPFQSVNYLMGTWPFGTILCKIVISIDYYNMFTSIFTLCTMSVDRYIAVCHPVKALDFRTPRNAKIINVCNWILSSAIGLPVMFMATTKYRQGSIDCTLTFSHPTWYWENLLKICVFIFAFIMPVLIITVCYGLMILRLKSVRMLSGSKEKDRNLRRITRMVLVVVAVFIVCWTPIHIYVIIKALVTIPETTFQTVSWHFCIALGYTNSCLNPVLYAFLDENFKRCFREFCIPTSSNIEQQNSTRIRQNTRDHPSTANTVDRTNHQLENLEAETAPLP
How it was run: as §1

Human κ-Opioid (KOP) = target: T3, Human κ-Opioid (KOP) (Homo sapiens, UniProt P41145); assay: Radioligand binding, human κ-opioid (KOP) membranes, filtration, [3H]-Diprenorphine
T3 construct: purchased Perkin Elmer Biosignal
T3 sequence (P41145 whole entry): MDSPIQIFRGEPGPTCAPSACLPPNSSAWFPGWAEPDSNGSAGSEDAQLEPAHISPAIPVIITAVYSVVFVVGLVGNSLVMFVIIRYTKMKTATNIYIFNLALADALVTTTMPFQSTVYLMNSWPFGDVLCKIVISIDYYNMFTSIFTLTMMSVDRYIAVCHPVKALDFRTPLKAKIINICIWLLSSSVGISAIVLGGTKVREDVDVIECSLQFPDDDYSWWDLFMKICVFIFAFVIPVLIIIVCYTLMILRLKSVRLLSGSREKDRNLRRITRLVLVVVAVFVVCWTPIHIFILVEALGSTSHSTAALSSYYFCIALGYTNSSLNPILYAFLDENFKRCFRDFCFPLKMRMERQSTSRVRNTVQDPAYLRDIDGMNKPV
How it was run: (§2)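 Percent inhibition of radioligand binding measured on recombinant human membranes: NK1 with [125I]-Substance P, KOP with [3H]-Diprenorphine. Incubation 1 h at room temperature, then harvest onto 0.3% PEI-soaked filters, cold Tris-HCl pH 7.4 washes and scintillation counting; non-specific binding from reference ligand wells.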

Human melanocortin (MC5) = target: T4, Human melanocortin (MC5) (Homo sapiens, UniProt P33032); assay: Radioligand binding, human melanocortin MC5 membranes, FlashPlate, [125I]-NDP-αMSH
T4 construct: purchased Perkin Elmer Biosignal
T4 sequence (P33032 whole entry): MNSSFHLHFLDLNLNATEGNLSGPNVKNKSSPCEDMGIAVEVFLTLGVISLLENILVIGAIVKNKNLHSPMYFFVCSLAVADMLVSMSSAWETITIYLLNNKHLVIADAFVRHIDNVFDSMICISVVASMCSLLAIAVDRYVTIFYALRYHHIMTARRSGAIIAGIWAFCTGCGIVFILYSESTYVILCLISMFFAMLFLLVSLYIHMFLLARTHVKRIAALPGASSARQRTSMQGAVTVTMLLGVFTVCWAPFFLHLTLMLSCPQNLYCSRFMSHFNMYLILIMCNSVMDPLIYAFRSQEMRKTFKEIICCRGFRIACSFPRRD
How it was run: as §1

[1] = target: T5, Human neuropeptide Y (NPY-Y1) (Homo sapiens, UniProt P25929); assay: Radioligand binding, human neuropeptide Y NPY-Y1 membranes, FlashPlate, [125I]-PYY
T5 construct: purchased Perkin Elmer Biosignal
T5 sequence (P25929 1-384): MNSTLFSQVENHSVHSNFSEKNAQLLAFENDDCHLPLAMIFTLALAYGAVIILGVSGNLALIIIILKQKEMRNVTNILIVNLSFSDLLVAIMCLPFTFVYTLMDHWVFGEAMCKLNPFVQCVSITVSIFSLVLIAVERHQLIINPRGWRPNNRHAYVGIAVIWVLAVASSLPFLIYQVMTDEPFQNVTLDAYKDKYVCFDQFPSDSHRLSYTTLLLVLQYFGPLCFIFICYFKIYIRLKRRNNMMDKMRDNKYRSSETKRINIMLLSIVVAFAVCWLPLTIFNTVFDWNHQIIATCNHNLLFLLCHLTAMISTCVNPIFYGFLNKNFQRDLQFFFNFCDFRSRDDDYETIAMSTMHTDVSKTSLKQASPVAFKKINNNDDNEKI
How it was run: as §1

Human δ-opioid (DOP) = target: T6, Human δ-opioid (DOP) (Homo sapiens, UniProt P41143); assay: Radioligand binding, human δ-opioid (DOP) membranes, FlashPlate, [3H]-Bremazocine
T6 construct: purchased Perkin Elmer Biosignal
T6 sequence (P41143 whole entry): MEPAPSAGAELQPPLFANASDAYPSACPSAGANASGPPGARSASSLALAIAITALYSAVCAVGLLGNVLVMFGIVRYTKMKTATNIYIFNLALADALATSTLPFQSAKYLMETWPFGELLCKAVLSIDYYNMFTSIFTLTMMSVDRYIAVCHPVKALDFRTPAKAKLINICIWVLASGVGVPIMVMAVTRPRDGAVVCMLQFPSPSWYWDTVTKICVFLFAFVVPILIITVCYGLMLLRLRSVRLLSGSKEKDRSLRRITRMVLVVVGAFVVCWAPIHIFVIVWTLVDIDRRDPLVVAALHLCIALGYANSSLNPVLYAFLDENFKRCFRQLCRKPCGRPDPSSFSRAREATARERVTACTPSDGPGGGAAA
How it was run: as §1

Human Melanocortin (MC4) = target: T7, Human Melanocortin (MC4) (Homo sapiens, UniProt P32245); assay: Radioligand binding, human melanocortin MC4 membranes, FlashPlate, [125I]-NDP-αMSH
T7 construct: purchased Perkin Elmer Biosignal
T7 sequence (P32245 whole entry): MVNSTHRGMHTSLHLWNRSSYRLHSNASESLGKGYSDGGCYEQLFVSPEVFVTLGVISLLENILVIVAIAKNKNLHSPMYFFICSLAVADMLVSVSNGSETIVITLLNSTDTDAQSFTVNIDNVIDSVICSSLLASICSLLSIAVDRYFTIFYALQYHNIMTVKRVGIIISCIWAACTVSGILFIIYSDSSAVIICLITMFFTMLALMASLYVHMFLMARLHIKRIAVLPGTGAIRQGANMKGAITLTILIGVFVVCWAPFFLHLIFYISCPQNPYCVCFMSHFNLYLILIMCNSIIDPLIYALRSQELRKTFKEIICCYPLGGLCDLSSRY
How it was run: as §1

Human Melanocortin (MC3) = target: T8, Human Melanocortin (MC3) (Homo sapiens, UniProt P41968); assay: Radioligand binding, human melanocortin MC3 membranes, FlashPlate, [125I]-NDP-αMSH
T8 construct: purchased Perkin Elmer Biosignal
T8 sequence (P41968 whole entry): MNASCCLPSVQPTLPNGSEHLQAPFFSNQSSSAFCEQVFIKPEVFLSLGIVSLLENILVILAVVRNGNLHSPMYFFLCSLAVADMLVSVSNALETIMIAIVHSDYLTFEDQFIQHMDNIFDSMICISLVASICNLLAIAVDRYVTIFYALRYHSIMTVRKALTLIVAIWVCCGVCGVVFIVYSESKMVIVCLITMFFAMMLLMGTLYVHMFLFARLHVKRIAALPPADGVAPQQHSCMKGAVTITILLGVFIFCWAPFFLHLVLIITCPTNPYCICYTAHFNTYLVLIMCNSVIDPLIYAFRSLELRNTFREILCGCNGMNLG
How it was run: as §1

Mouse urotensin (mUR2) = target: T9, Mouse urotensin (mUR2) (Mus musculus, UniProt Q8VIH9); assay: Radioligand binding, mouse urotensin mUR2 membranes, FlashPlate, [125I]-Urotensin II
T9 construct: purchased Perkin Elmer Biosignal
T9 sequence (Q8VIH9 1-385): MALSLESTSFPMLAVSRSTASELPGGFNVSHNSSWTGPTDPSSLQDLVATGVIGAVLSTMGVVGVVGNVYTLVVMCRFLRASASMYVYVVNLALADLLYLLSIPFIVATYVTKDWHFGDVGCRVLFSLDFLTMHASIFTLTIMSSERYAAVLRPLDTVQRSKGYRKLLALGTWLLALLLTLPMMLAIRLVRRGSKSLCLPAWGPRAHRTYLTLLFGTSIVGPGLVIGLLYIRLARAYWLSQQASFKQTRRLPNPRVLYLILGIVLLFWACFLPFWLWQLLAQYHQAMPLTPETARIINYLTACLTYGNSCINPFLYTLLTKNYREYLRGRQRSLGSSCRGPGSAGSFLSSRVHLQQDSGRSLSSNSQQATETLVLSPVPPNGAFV
How it was run: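 Cloned mouse urotensin (mUR2) receptor membranes from Perkin Elmer Biosignal were immobilized in FlashPlate microplates using a proprietary coating. Each well got 19.5 μl buffer, then 0.5 μl of DMSO, reference ligand, or compound. Adding 5 μl of [125I]-Urotensin II, diluted to 5× final concentration in binding buffer, started binding. Plates were sealed with TopSeal-A and incubated 1 hour at room temperature in the dark. Wells were counted for 30 seconds each on a TopCount after a 60-second delay, and percentage inhibition was calculated.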

[2] = target: T10, Human melanin-concentrating hormone (MCH1) (Homo sapiens, UniProt Q99705); assay: Radioligand binding, human melanin-concentrating hormone MCH1 membranes, FlashPlate, [125I]-S36057
T10 construct: purchased Perkin Elmer Biosignal
T10 sequence (Q99705 whole entry): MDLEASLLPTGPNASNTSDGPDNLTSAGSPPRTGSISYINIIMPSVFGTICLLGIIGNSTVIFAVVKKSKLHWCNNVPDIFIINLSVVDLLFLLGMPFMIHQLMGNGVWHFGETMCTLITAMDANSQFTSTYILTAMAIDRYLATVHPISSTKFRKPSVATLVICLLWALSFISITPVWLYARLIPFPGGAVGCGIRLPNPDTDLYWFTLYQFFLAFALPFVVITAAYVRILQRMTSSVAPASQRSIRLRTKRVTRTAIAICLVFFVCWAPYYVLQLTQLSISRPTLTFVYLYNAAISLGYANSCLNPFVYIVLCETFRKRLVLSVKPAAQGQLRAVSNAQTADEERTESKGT
How it was run: as §1

Human neurokinin (NK1) = target: T11, Human neurokinin (NK1) (Homo sapiens, UniProt P25103); assay: Radioligand binding, human neurokinin NK1 membranes, filtration, [125I]-Substance P
T11 construct: purchased Perkin Elmer Biosignal
T11 sequence (P25103 whole entry): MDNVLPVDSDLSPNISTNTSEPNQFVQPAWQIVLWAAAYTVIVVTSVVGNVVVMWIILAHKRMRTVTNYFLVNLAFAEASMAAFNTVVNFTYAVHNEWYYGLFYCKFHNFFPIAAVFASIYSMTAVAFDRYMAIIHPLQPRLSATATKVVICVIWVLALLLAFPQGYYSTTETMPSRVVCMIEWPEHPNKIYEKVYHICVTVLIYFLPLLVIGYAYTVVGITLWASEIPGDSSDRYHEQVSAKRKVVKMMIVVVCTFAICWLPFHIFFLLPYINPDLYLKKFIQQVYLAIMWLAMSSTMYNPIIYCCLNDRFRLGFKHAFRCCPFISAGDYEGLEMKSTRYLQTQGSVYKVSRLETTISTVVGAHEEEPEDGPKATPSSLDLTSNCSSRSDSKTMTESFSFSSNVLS
How it was run: as §2

T1 sequence (P41146 whole entry): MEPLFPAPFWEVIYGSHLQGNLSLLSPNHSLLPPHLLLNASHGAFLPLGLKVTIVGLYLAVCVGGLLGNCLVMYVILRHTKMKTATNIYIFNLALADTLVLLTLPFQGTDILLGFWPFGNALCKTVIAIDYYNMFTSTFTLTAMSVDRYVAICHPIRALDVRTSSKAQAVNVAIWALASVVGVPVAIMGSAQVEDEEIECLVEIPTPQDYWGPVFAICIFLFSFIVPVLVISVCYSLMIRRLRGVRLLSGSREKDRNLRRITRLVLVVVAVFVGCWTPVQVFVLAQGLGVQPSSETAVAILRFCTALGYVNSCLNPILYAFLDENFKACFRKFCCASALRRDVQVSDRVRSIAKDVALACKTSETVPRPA

COC[C@H]1OC(OCc2ccccc2)[C@H](NC(=O)CCCN)[C@@H](OCc2cccc(O)c2)[C@@H]1O (stereo partly shown) [compound 136]
A10 radioligand binding, percentage inhibition (Human opioid (ORL1); [125I]-Nociceptin): − (“−” indicates less than 50% inhibition at 10 μM) | A7 radioligand binding, percentage inhibition (Human μ-opioid (MOP); [3H]-Naloxone): − (“−” indicates less than 50% inhibition at 10 μM) | A2 radioligand binding, percentage inhibition (Human κ-Opioid (KOP); [3H]-Diprenorphine): − (“−” indicates less than 50% inhibition at 10 μM) | A5 radioligand binding, percentage inhibition (Human melanocortin (MC5); [125I]-NDP-αMSH): − (“−” indicates less than 50% inhibition at 10 μM) | A9 radioligand binding, percentage inhibition ([1]; [125I]-PYY): − (“−” indicates less than 50% inhibition at 10 μM) | A1 radioligand binding, percentage inhibition (Human δ-opioid (DOP); [3H]-Bremazocine): − (“−” indicates less than 50% inhibition at 10 μM) | A4 radioligand binding, percentage inhibition (Human Melanocortin (MC4); [125I]-NDP-αMSH): − (“−” indicates less than 50% inhibition at 10 μM) | A3 radioligand binding, percentage inhibition (Human Melanocortin (MC3); [125I]-NDP-αMSH): − (“−” indicates less than 50% inhibition at 10 μM) | A11 radioligand binding, percentage inhibition (Mouse urotensin (mUR2); [125I]-Urotensin II): − (“−” indicates less than 50% inhibition at 10 μM) | A6 radioligand binding, percentage inhibition ([2]; [125I]-S36057): − (“−” indicates less than 50% inhibition at 10 μM) | A8 radioligand binding, percentage inhibition (Human neurokinin (NK1); [125I]-Substance P): + (“+” indicates greater than 50% inhibition at 10 μM)

NCCC(=O)NC1C(OCc2ccc3ccccc3c2)OC(COCc2ccccc2)C(O)C1OCc1ccc2ccccc2c1 (stereo not shown) [compound 385]
A10: inhibition of radioligand binding (Human opioid (ORL1); [125I]-Nociceptin, human ORL1 membranes): − (“−” indicates less than 50% inhibition at 10 μM) | A7: inhibition of radioligand binding (Human μ-opioid (MOP); [3H]-Naloxone, human MOP membranes): − (“−” indicates less than 50% inhibition at 10 μM) | A2: inhibition of radioligand binding (Human κ-Opioid (KOP); [3H]-Diprenorphine, human KOP membranes): − (“−” indicates less than 50% inhibition at 10 μM) | A5: inhibition of radioligand binding (Human melanocortin (MC5); [125I]-NDP-αMSH, human MC5 membranes): + (“+” indicates greater than 50% inhibition at 10 μM) | A9: inhibition of radioligand binding ([1]; [125I]-PYY, human NPY-Y1 membranes): − (“−” indicates less than 50% inhibition at 10 μM) | A1: inhibition of radioligand binding (Human δ-opioid (DOP); [3H]-Bremazocine, human DOP membranes): − (“−” indicates less than 50% inhibition at 10 μM) | A4: inhibition of radioligand binding (Human Melanocortin (MC4); [125I]-NDP-αMSH, human MC4 membranes): + (“+” indicates greater than 50% inhibition at 10 μM) | A3: inhibition of radioligand binding (Human Melanocortin (MC3); [125I]-NDP-αMSH, human MC3 membranes): + (“+” indicates greater than 50% inhibition at 10 μM) | A11: inhibition of radioligand binding (Mouse urotensin (mUR2); [125I]-Urotensin II, mouse mUR2 membranes): − (“−” indicates less than 50% inhibition at 10 μM) | A6: inhibition of radioligand binding ([2]; [125I]-S36057, human MCH1 membranes): + (“+” indicates greater than 50% inhibition at 10 μM) | A8: inhibition of radioligand binding (Human neurokinin (NK1); [125I]-Substance P, human NK1 membranes): + (“+” indicates greater than 50% inhibition at 10 μM)

N=C(N)NCC(=O)NC1C(OCc2ccc(Cl)cc2)OC(COCc2ccccc2)C(O)C1OCc1ccc(Cl)cc1 (single isomer, unassigned) [compound 510]
A10: inhibition of radioligand binding, human opioid (ORL1) (Human opioid (ORL1); [125I]-Nociceptin, 10 µM): + (“+” indicates greater than 50% inhibition at 10 μM) | A7: inhibition of radioligand binding, human μ-opioid (MOP) (Human μ-opioid (MOP); [3H]-Naloxone, 10 µM): − (“−” indicates less than 50% inhibition at 10 μM) | A2: inhibition of radioligand binding, human κ-opioid (KOP) (Human κ-Opioid (KOP); [3H]-Diprenorphine): − (“−” indicates less than 50% inhibition at 10 μM) | A5: inhibition of radioligand binding, human melanocortin (MC5) (Human melanocortin (MC5); [125I]-NDP-αMSH): + (“+” indicates greater than 50% inhibition at 10 μM) | A9: inhibition of radioligand binding, human neuropeptide Y (NPY-Y1) ([1]; [125I]-PYY): − (“−” indicates less than 50% inhibition at 10 μM) | A1: inhibition of radioligand binding, human δ-opioid (DOP) (Human δ-opioid (DOP); [3H]-Bremazocine): − (“−” indicates less than 50% inhibition at 10 μM) | A4: inhibition of radioligand binding, human melanocortin (MC4) (Human Melanocortin (MC4); [125I]-NDP-αMSH): + (“+” indicates greater than 50% inhibition at 10 μM) | A3: inhibition of radioligand binding, human melanocortin (MC3) (Human Melanocortin (MC3); [125I]-NDP-αMSH, 10 µM): + (“+” indicates greater than 50% inhibition at 10 μM) | A11: inhibition of radioligand binding, mouse urotensin (mUR2) (Mouse urotensin (mUR2); [125I]-Urotensin II): − (“−” indicates less than 50% inhibition at 10 μM) | A6: inhibition of radioligand binding, human melanin-concentrating hormone (MCH1) ([2]; [125I]-S36057): + (“+” indicates greater than 50% inhibition at 10 μM) | A8: inhibition of radioligand binding, human neurokinin (NK1) (Human neurokinin (NK1); [125I]-Substance P): + (“+” indicates greater than 50% inhibition at 10 μM)

CO[C@H]1[C@H](O)[C@@H](COCc2ccc3ccccc3c2)OC(OCc2ccc(-c3ccccc3)cc2)[C@@H]1NC(=O)CCNC(=N)N (stereo partly shown) [compound 56]
A10 radioligand binding inhibition (Human opioid (ORL1); human ORL1 membranes): − (“−” indicates less than 50% inhibition at 10 μM) | A7 radioligand binding inhibition (Human μ-opioid (MOP); human μ-opioid (MOP) membranes): + (“+” indicates greater than 50% inhibition at 10 μM) | A2 radioligand binding inhibition (Human κ-Opioid (KOP); human κ-opioid (KOP) membranes): − (“−” indicates less than 50% inhibition at 10 μM) | A5 radioligand binding inhibition (Human melanocortin (MC5); human melanocortin MC5 membranes): + (“+” indicates greater than 50% inhibition at 10 μM) | A9 radioligand binding inhibition ([1]; human NPY-Y1 membranes): − (“−” indicates less than 50% inhibition at 10 μM) | A1 radioligand binding inhibition (Human δ-opioid (DOP); human δ-opioid (DOP) membranes): − (“−” indicates less than 50% inhibition at 10 μM) | A4 radioligand binding inhibition (Human Melanocortin (MC4); human melanocortin MC4 membranes): − (“−” indicates less than 50% inhibition at 10 μM) | A3 radioligand binding inhibition (Human Melanocortin (MC3); human melanocortin MC3 membranes): − (“−” indicates less than 50% inhibition at 10 μM) | A11 radioligand binding inhibition (Mouse urotensin (mUR2); mouse urotensin mUR2 membranes): − (“−” indicates less than 50% inhibition at 10 μM) | A6 radioligand binding inhibition ([2]; human MCH1 membranes): − (“−” indicates less than 50% inhibition at 10 μM) | A8 radioligand binding inhibition (Human neurokinin (NK1); human neurokinin NK1 membranes): + (“+” indicates greater than 50% inhibition at 10 μM)

COC[C@H]1OC(OCCNC(=N)N)[C@H](NC(=O)c2ccccc2)[C@@H](OCc2ccc3ccccc3c2)[C@@H]1O (stereo partly shown) [compound 123]
A10 radioligand binding, percentage inhibition (Human opioid (ORL1); [125I]-Nociceptin): − (“−” indicates less than 50% inhibition at 10 μM) | A7 radioligand binding, percentage inhibition (Human μ-opioid (MOP); [3H]-Naloxone): − (“−” indicates less than 50% inhibition at 10 μM) | A2 radioligand binding, percentage inhibition (Human κ-Opioid (KOP); [3H]-Diprenorphine): − (“−” indicates less than 50% inhibition at 10 μM) | A5 radioligand binding, percentage inhibition (Human melanocortin (MC5); [125I]-NDP-αMSH): + (“+” indicates greater than 50% inhibition at 10 μM) | A9 radioligand binding, percentage inhibition ([1]; [125I]-PYY): − (“−” indicates less than 50% inhibition at 10 μM) | A1 radioligand binding, percentage inhibition (Human δ-opioid (DOP); [3H]-Bremazocine): − (“−” indicates less than 50% inhibition at 10 μM) | A4 radioligand binding, percentage inhibition (Human Melanocortin (MC4); [125I]-NDP-αMSH): − (“−” indicates less than 50% inhibition at 10 μM) | A3 radioligand binding, percentage inhibition (Human Melanocortin (MC3); [125I]-NDP-αMSH): − (“−” indicates less than 50% inhibition at 10 μM) | A11 radioligand binding, percentage inhibition (Mouse urotensin (mUR2); [125I]-Urotensin II): − (“−” indicates less than 50% inhibition at 10 μM) | A6 radioligand binding, percentage inhibition ([2]; [125I]-S36057): − (“−” indicates less than 50% inhibition at 10 μM) | A8 radioligand binding, percentage inhibition (Human neurokinin (NK1); [125I]-Substance P): + (“+” indicates greater than 50% inhibition at 10 μM)
